{"source": "patent US20250339338A1", "about": "“BLOOD STORAGE CONTAINER CONTAINING AQUEOUS COMPOSITION FOR THE STORAGE OF RED BLOOD CELLS” (Hemerus Medical, LLC, priority 2013, published 2025)", "origin": "cited, not measured here", "test_system": "humans", "conditions": "in vivo"}
{"smiles": "CCCCC(CC)COC(=O)c1ccccc1C(=O)OCC(CC)CCCC", "note": "(stereo not shown) [DEHP, di-ethylhexyl phthalate]", "values": [{"measurement": "adverse health effects found in studies in humans", "result": "adverse health effects such as respiratory distress, choleostasis, and histological abnormalities of the liver"}]}
